ChEMBL document CHEMBL1126963, “Acid unit modifications of 1,2,4,5-substituted hydroxyacetophenones and the effect on in vitro and in vivo LTB4 receptor antagonism” (Bioorg Med Chem Lett, 1993)

How the values were obtained:
Format in all cases: functional
Homo sapiens = species on record: Homo sapiens; assay: Antagonism of LTB4 receptor induced CD11b/CD18 adhesion protein up-regulation in human neutrophil
Cavia porcellus [1] = assay: Potency was evaluated in vivo in a guinea pig model of LTB4-induced airway obstruction upon intravenous administration
Cavia porcellus [2] = assay: Potency was evaluated in vivo in a guinea pig model of LTB4-induced airway obstruction upon oral administration

Row | Structure (SMILES) | IC50 (Homo sapiens) | ED50 (Cavia porcellus [1]) | ED50 (Cavia porcellus [2])
1 | CCCc1c(OCCCOc2cc(O)c(C(C)=O)cc2CC)cccc1OCC(=O)O | 4.39 µM | – | –
2 | CCc1cc(C(C)=O)c(O)cc1OCCCCCC(C)(C)c1nn[nH]n1 [LY-255283] | – | 2.8 mg/kg | 11 mg/kg

More lines, main results first:

Row | IC50 (Homo sapiens) | Structure (SMILES) | ED50 (Cavia porcellus [1]) | ED50 (Cavia porcellus [2])
3 | 3.27 µM | CCCc1c(OCCCOc2cc(O)c(C(C)=O)cc2CC)cccc1OC(C)C(=O)O (stereo not drawn) | – | –
4 | 1.94 µM | CCCc1c(OCCCOc2cc(O)c(C(C)=O)cc2CC)cccc1OC(CC)C(=O)O (stereo not drawn) | – | –
5 | 1.6 µM | CCCc1c(OCCCOc2cc(O)c(C(C)=O)cc2CC)ccc2c1OC(C(=O)[O-])CC2.[Na+] (stereo not drawn) | 0.23 mg/kg | 0.5 mg/kg
